Results from US12157730B2, “Heteroaryl derivative, method for producing same, and pharmaceutical composition comprising same as effective component” (VORONOI INC., priority 2019, dated 2024).

Target: T1, Ba/F3 cell EGFR Exon20 ins NPH (Homo sapiens, UniProt P00533, INS773NPH)
T1 construct: expressed in transfected cells; host or cells: Ba/F3
Experiment: Ba/F3 cell proliferation suppression, EGFR Exon20 ins NPH
Format: cell-based
Details: GI50 class; Ba/F3 cell line with NPH inserted at Exon20 of EGFR; 72 hours
In short: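 Cells (3000–5000/well) plated 24 h before compound, 12-point 3-fold dilutions at 0.3 nM to 50 um final; Ba/F3 lines grown with 5 ng/ml IL-3. Viability by CellTiter-Glo luminescence after 72 h, growth ratio vs control, GI50 from curves; triplicate.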

| Compound | Ba/F3 (NPH) Activity |
| --- | --- |
| C=CC(=O)Nc1cc(Nc2cc(N3OCC[C@@H]3c3ccc(F)cc3F)ncn2)c(OC)cc1N1CCC(N(C)CCOC)CC1 [compound 387, N-(5-((6-((R)-3-(2,4-difluorophenyl)isoxazolidine-2-yl)pyrimidine-4-yl)amino)-4-methoxy-2-(4-((2-methoxyethyl)(methyl)amino)piperidine-1-yl)phenyl)acrylamide] | A (GI50 < 50 nM) |
| C=CC(=O)Nc1cc(Nc2cc(N3OCC[C@@H]3c3ccc(F)cc3F)ncn2)c(OC)cc1N1CCN(CCN(C)C)CC1 [compound 349, N-(5-((6-((R)-3-(2,4-difluorophenyl)isoxazolidine-2-yl)pyrimidine-4-yl)amino)-2-(4-(2-(dimethylamino)ethyl)piperazine-1-yl)-4-methoxyphenyl) acrylamide] | A (GI50 < 50 nM) |
| C=CC(=O)Nc1cc(Nc2cc(N3OCC[C@@H]3c3cc(F)cc(F)c3)ncn2)c(OC)cc1N1CCC(N2CCCN(C3CC3)CC2)CC1 [compound 717, N-(2-(4-(4-cyclopropyl-1,4-diazepane-1-yl)piperidine-1-yl)-5-((6-((R)-3-(3,5-difluorophenyl)isoxazolidine-2-yl)pyrimidine-4-yl)amino)-4-methoxyphenyl) acrylamide] | A (GI50 < 50 nM) |
| C=CC(=O)Nc1cc(Nc2cc(N3OCC[C@@H]3c3cc(F)cc(F)c3)ncn2)c(OC)cc1N1CCC(N2C[C@@H](C)N(C3CC3)C[C@H]2C)CC1 [Example 114, N-(2-(4-((2R,5R)-4-cyclopropyl-2,5-dimethylpiperazine-1-yl)piperidine-1-yl)-5-((6-((R)-3-(3,5-difluorophenyl)isoxazolidine-2-yl)pyrimidine-4-yl)amino)-4-methoxyphenyl) acrylamide] | A (GI50 < 50 nM) |
| C=CC(=O)Nc1cc(Nc2cc(N3OCC[C@@H]3c3ccc(Cl)c(Cl)c3)ncn2)c(OC)cc1N1CCC(N(C)C)CC1 [compound 677, N-(5-((6-((R)-3-(3,4-dichlorophenyl)isoxazolidine-2-yl)pyrimidine-4-yl)amino)-2-(4-(dimethylamino)piperidine-1-yl)-4-methoxyphenyl) acrylamide] | A (GI50 < 50 nM) |
| C=CC(=O)Nc1cc(Nc2cc(N3OCC[C@@H]3Cc3cccc(Cl)c3Cl)ncn2)c(OC)cc1N1CCC(N2CCO[C@@H](C)C2)CC1 [compound 1013, N-(5-((6-((S)-3-(2,3-dichlorobenzyl)isoxazolidine-2-yl)pyrimidine-4-yl)amino)-4-methoxy-2-(4-((S)-2-methylmorpholino)piperidine-1-yl)phenyl) acrylamide] | A (GI50 < 50 nM) |
| C=CC(=O)Nc1cc(Nc2cc(N3OCC[C@@H]3c3ccc(F)c(Cl)c3)ncn2)c(OC)cc1N1CCN(C(C)C)CC1 [compound 724, N-(5-((6-((R)-3-(3-chloro-4-fluorophenyl)isoxazolidine-2-yl)pyrimidine-4-yl)amino)-2-(4-isopropylpiperazine-1-yl)-4-methoxyphenyl) acrylamide] | A (GI50 < 50 nM) |
| C=CC(=O)Nc1cc(Nc2cc(N3OCC[C@@H]3Cc3cccc(Cl)c3Cl)ncn2)c(OC)cc1N1CCC(N2CCN(C3CC3)[C@@H](C)C2)CC1 [compound 981, N-(2-(4-((S)-4-cyclopropyl-3-methylpiperazine-1-yl)piperidine-1-yl)-5-((6-((S)-3-(2,3-dichlorobenzyl)isoxazolidine-2-yl)pyrimidine-4-yl)amino)-4-methoxyphenyl) acrylamide] | A (GI50 < 50 nM) |
| C=CC(=O)Nc1cc(Nc2cc(N3OCC[C@@H]3c3cc(F)ccc3F)ncn2)c(OC)cc1N1CCN(CCC)CC1 [compound 300, N-(5-((6-((R)-3-(2,5-difluorophenyl)isoxazolidine-2-yl)pyrimidine-4-yl)amino)-4-methoxy-2-(4-propylpiperazine-1-yl)phenyl)acrylamide] | A (GI50 < 50 nM) |
| C=CC(=O)Nc1cc(Nc2cc(N3OCC[C@@H]3c3cccc(OC)c3)ncn2)c(OC)cc1N1CCC(N2C[C@H]3C[C@@H]2CO3)CC1 [compound 726, N-(2-(4-((1R,4R)-2-oxa-5-azabicyclo [2.2.1]heptane-5-yl)piperidine-1-yl)-4-methoxy-5-((6-((R)-3-(3-methoxyphenyl)isoxazolidine-2-yl)pyrimidine-4-yl)amino)phenyl)acrylamide] | A (GI50 < 50 nM) |
| C=CC(=O)Nc1cc(Nc2cc(N3OCC[C@@H]3c3cc(F)cc(F)c3)ncn2)c(OC)cc1N1CCC(N2C[C@H]3C[C@@H]2CN3CC)CC1 [Example 267, N-(5-((6-((R)-3-(3,5-difluorophenyl)isoxazolidine-2-yl)pyrimidine-4-yl)amino)-2-(4-((1R,4R)-5-ethyl-2,5-diazabicyclo[2.2.1]heptane-2-yl)piperidine-yl)-4-1-methoxyphenyl) acrylamide] | A (GI50 < 50 nM) |
| C=CC(=O)Nc1cc(Nc2cc(N3OCC[C@@H]3c3cccc(F)c3F)ncn2)c(OC)cc1N1CCN(C2CC2)CC1 [compound 333, N-(2-(4-cyclopropylpiperazine-1-yl)-5-((6-((R)-3-(2,3-difluorophenyl)isoxazolidine-2-yl)pyrimidine-4-yl)amino)-4-methoxyphenyl) acrylamide] | A (GI50 < 50 nM) |
| C=CC(=O)Nc1cc(Nc2cc(N3OCC[C@@H]3c3ccccc3)ncn2)c(OC)cc1N1CCC(N2CCN(C(C)=O)CC2)CC1 [Example 284, N-(2-(4-(4-acetylpiperazine-1-yl)piperidine-1-yl)-4-methoxy-5-((6-((R)-3-phenylisoxazolidine-2-yl)pyrimidine-4-yl)amino)phenyl) acrylamide] | A (GI50 < 50 nM) |
| C=CC(=O)Nc1cc(Nc2cc(N3OCC[C@@H]3c3ccc4ccccc4c3)ncn2)c(OC)cc1N1C[C@@H](C)O[C@@H](C)C1 [compound 664, N-(2-((2S,6R)-2,6-dimethylmorpholino)-4-methoxy-5-((6-((R)-3-(naphthalene-2-yl)isoxazolidine-2-yl)pyrimidine-4-yl)amino)phenyl)acrylamide] | C (500 nM ≤ GI50 < 5000 nM) |
| C=CC(=O)Nc1cc(Nc2cc(N3OCC[C@@H]3c3ccc(Cl)cc3)ncn2)c(OC)cc1N1CCC(N2CCN(C(C)C)CC2)CC1 [compound 807, N-(5-((6-((R)-3-(4-chlorophenyl)isoxazolidine-2-yl)pyrimidine-4-yl)amino)-2-(4-(4-isopropylpiperazine-1-yl)piperidine-1-yl)-4-methoxyphenyl) acrylamide] | A (GI50 < 50 nM) |
| C=CC(=O)Nc1cc(Nc2cc(N3OCC[C@@H]3c3cccc(C#N)c3)ncn2)c(OC)cc1N1CCC(N2C[C@H]3C[C@@H]2CO3)CC1 [compound 389, N-(2-(4-((1R,4R)-2-oxa-5-azabicyclo[2.2.1]heptane-5-yl)piperidine-1-yl)-5-((6-((R)-3-(3-cyanophenyl)isoxazolidine-2-yl)pyrimidine-4-yl)amino)-4-methoxyphenyl) acrylamide] | A (GI50 < 50 nM) |
| C=CC(=O)Nc1cc(Nc2cc(N3OCC[C@@H]3c3cc(F)ccc3F)ncn2)c(OC)cc1N1CCC(N2CCN(C(C)C)CC2)CC1 [compound 303, N-(5-((6-((R)-3-(2,5-difluorophenyl)isoxazolidine-2-yl)pyrimidine-4-yl)amino)-2-(4-(4-isopropylpiperazine-1-yl)piperidine-1-yl)-4-methoxyphenyl) acrylamide] | A (GI50 < 50 nM) |
| N-(2-(4-(4- (cyclopropylmethyl) piperazine-1-yl) piperidine-1-yl)-5-((6- ((S)-3-(2,6)- difluorophenyl) isoxazolidine-2-yl) pyrimidine-4-yl)amino)- 4-methoxyphenyl) acrylamide [Example 95] | C (500 nM ≤ GI50 < 5000 nM) |
| C=CC(=O)Nc1cc(Nc2cc(N3OCC[C@@H]3c3ccc(F)c(Cl)c3)ncn2)c(OC)cc1N1CCC(N2C[C@H]3CC[C@@H](C2)O3)CC1 [compound 871, N-(2-(4-((1R,5S)-8-oxa-3-azabicyclo [3.2.1]octan-3-yl)piperidine-1-yl)-5-((6-((R)-3-(3-chloro-4-fluorophenyl)isoxazolidine-2-yl)pyrimidine-4-yl)amino)-4-methoxyphenyl) acrylamide] | A (GI50 < 50 nM) |
| C#Cc1cccc([C@H]2CCON2c2cc(Nc3cc(NC(=O)C=C)c(N(C)CCN(C)C)cc3OC)ncn2)c1 [compound 616, N-(2-((2-(dimethylamino)ethyl) (methyl)amino)-5-((6-((R)-3-(3-ethynylphenyl)isoxazolidine-2-yl)pyrimidine-4-yl)amino)-4-methoxyphenyl) acrylamide] | A (GI50 < 50 nM) |
| C=CC(=O)Nc1cc(Nc2cc(N3OCC[C@@H]3c3ccc(Cl)cc3F)ncn2)c(OC)cc1N1CCN(C)CC1 [compound 372, N-(5-((6-((R)-3-(4-chloro-2-fluorophenyl)isoxazolidine-2-yl)pyrimidine-4-yl)amino)-4-methoxy-2-(4-methylpiperazine-1-yl)phenyl)acrylamide] | A (GI50 < 50 nM) |
| C=CC(=O)Nc1cc(Nc2cc(N3OCC[C@@H]3c3ccc4ccccc4c3)ncn2)c(OC)cc1N1CCC(N2CCN(C3CCC3)CC2)CC1 [Example 190, N-(2-(4-(4-cyclobutylpiperazine-1-yl)piperidine-1-yl)-4-methoxy-5-((6-((R)-3-(naphthalene-2-yl)isoxazolidine-2-yl)pyrimidine-4-yl)amino)phenyl)acrylamide] | B (50 nM ≤ GI50 < 500 nM) |
| C=CC(=O)Nc1cc(Nc2cc(N3OCC[C@@H]3c3cccc(OC)c3)ncn2)c(OC)cc1N1CC[C@@H](N(C)C)C1 [compound 776, N-(2-((R)-3-(dimethylamino)pyrolidine-1-yl)-4-methoxy-5-((6-((R)-3-(3-methoxyphenyl)isoxazolidine-2-yl)pyrimidine-4-yl)amino)phenyl)acrylamide] | A (GI50 < 50 nM) |
